ChEMBL document CHEMBL1128534, “Cyclic lactam alpha-melanotropin analogues of Ac-Nle4-cyclo[Asp5, D-Phe7,Lys10] alpha-melanocyte-stimulating hormone-(4-10)-NH2 with bulky aromatic amino acids at position 7 show high antagonist potency and selectivity at specific melanocortin receptors” (J Med Chem, 1995)

How the values were obtained:
Assay type in all cases: functional
[1] = target: T1, Melanocyte-stimulating hormone receptor (Homo sapiens, UniProt Q01726)
[2] = target: Melanocyte-stimulating hormone receptor (Mus musculus, UniProt Q01727)
[3] = target: T1, Melanocyte-stimulating hormone receptor; experiment: Evaluated for agonist at […] frog (Rana pipiens) skin assay

Chain of Melanocyte-stimulating hormone receptor (Mus musculus, UniProt Q01727) (Q01727 whole entry): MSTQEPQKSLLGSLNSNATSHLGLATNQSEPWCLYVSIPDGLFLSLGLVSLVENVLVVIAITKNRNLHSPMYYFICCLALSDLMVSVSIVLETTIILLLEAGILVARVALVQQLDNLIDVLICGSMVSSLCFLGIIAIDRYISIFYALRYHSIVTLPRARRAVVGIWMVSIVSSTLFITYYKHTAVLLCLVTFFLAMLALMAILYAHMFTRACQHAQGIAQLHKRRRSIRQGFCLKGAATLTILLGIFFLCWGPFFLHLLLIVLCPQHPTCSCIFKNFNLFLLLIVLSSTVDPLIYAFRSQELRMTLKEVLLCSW
T1 sequence (Q01726 whole entry): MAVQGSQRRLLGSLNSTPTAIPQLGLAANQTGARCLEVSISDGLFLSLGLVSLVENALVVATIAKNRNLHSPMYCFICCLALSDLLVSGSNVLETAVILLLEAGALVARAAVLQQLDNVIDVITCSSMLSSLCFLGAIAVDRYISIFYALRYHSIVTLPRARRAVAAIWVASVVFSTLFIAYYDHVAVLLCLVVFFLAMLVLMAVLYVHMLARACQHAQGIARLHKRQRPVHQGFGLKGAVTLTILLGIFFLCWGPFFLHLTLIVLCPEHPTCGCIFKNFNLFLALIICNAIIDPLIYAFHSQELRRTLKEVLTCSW

CCCC[C@H](NC(C)=O)C(=O)N[C@H]1CC(=O)NCCCC[C@@H](C(N)=O)NC(=O)[C@H](Cc2c[nH]c3ccccc23)NC(=O)[C@H](CCCN=C(N)N)NC(=O)[C@@H](Cc2ccc(I)cc2)NC(=O)[C@H](Cc2c[nH]cn2)NC1=O
EC50 [1]: 0.055 nM | EC50 [2]: 0.19 nM

CCCC[C@H](NC(C)=O)C(=O)N[C@H]1CC(=O)NCCCC[C@@H](C(N)=O)NC(=O)[C@H](Cc2c[nH]c3ccccc23)NC(=O)[C@H](CCCN=C(N)N)NC(=O)[C@@H](Cc2ccc(F)cc2)NC(=O)[C@H](Cc2c[nH]cn2)NC1=O
EC50 [1]: 0.016 nM | EC50 [3]: 0.1 nM | EC50 [2]: 0.026 nM

CCCC[C@H](NC(C)=O)C(=O)N[C@H]1CC(=O)NCCCC[C@@H](C(N)=O)NC(=O)[C@H](Cc2c[nH]c3ccccc23)NC(=O)[C@H](CCCNC(=N)N)NC(=O)[C@@H](Cc2ccc(Cl)cc2)NC(=O)[C@H](Cc2cnc[nH]2)NC1=O
EC50 [1]: 0.005 nM | EC50 [3]: 2 nM | EC50 [2]: 0.0095 nM

CCCC[C@H](NC(C)=O)C(=O)N[C@H]1CC(=O)NCCCC[C@@H](C(N)=O)NC(=O)[C@H](Cc2c[nH]c3ccccc23)NC(=O)[C@H](CCCNC(=N)N)NC(=O)[C@@H](Cc2ccc3ccccc3c2)NC(=O)[C@H](Cc2c[nH]cn2)NC1=O
EC50 [2]: 0.039 nM
